Laboratory results reported in patent publication US7265139B2, “RXR activating molecules” (Incyte San Diego Inc., priority 2001, dated 2007).

How the values were obtained:
[1] = tested on: Mouse 3T3-L1 preadipocytes; assay: 3T3-L1 adipocyte differentiation assay; format: cell-based; conditions: 0.1 μM compared to Compound 1 at equal concentration; pre-adipocytes to adipocytes
Method: Mouse 3T3-L1 cells were grown in 96-well tissue culture plates containing growing medium (DME containing 10% calf serum (CS) plus glutamine-pen-strep) at a density of 3,000 cells/well. Two days after reaching confluence, cells are treated with the different compounds in DM (Day 0). Compound 1 is included in all the experiments, and its ability to differentiate 3T3-L1 cells at 0.1 μM is taken as reference for 100% differentiation. After 7 days the lipid content of the cells was determined.
Prior to testing compounds in vivo, they can be run through the in vitro adipocyte differentiation assay based on the protocol of Zhang, et al. (1996) Negative Regulation of Peroxisome Proliferator—Activated Receptor—γGene Expression Contributes to the Antiadipogenic effects of Tumor Necrosis Factor—α. Mol. Endo. 10:1457-1456, incorporated herein by reference. In short, mouse 3T3-L1 preadipocytes are grown in culture medium containing 10% calf serum supplemented with antibiotics. Two days after reaching confluence, cells are treated with the selected compound at different concentrations dissolved in medium containing 10% fetal calf serum supplemented with antibiotics and kept at 10% CO2. The test compounds are replaced every 2-3 days. Differentiation is assessed after 7 days of treatment by the lipid content in the cells, using the Triglyceride (INFINITY) reagent (Sigma Chemical, St. Louis, Mo.).
The ability of a compound to induce preadipocytes to differentiate into adipocytes is an indicator of its antidiabetic activity. This allows for screening many compounds in a simple in vitro assay, thus avoiding the task of testing all compounds in vivo. The adipocyte differentiation assay is based on the protocol of Zhang, et al. (1996) Negative Regulation of Peroxisome Proliferator-Activated Receptor-γ Gene Expression Contributes to the Antiadipogenic effects of Tumor Necrosis Factor—α. Mol. Endo. 10:1457-1456, incorporated herein by reference at least for material related to adipocyte differentiation assays. Mouse 3T3-L1 preadipocytes are grown in culture medium containing 10% calf serum supplemented with antibiotics. Two days after reaching confluence, cells are treated with the selected compound at different concentrations dissolved in medium containing 10% fetal calf serum supplemented with antibiotics and kept at 10% CO2. The test compounds are replaced every 2-3 days. Differentiation is assessed after 7 days of treatment by the lipid content in the cells, using the Triglyceride (INFINITY) reagent (Sigma Chemical, St. Louis, Mo.) (see FIG. 15).

KKA^y mice = assay: Antidiabetic activity in type 2 diabetic KKA^y mice; format: in vivo, mouse
Method: Prior to commencing treatment, all of the animals are bled from the tail vein and serum levels of glucose and triglyceride are measured in duplicate. The animals are then sorted into different treatment groups with equal average triglyceride levels. The animals are treated with a single daily oral dose of the test compound suspended in sesame oil (dose volume of 3 ml/kg).
In short, adult diabetic KKA^y mice are housed in a fixed 12—12-hr artificial light-dark cycle, and maintained on a standard rodent diet. Prior to commencing treatment, all of the animals are bled from the tail vein and serum levels of glucose and triglyceride are measured in duplicate. The animals are then sorted into different treatment groups with equal average triglyceride levels. The animals are treated with a single daily oral dose ranging from 3-30 mg/kg of the test compound suspended in sesame oil (dose volume of 3-5 ml/kg). Following one week of treatment the animals are bled from the tail vein and Serum glucose and triglycerides are measured in duplicate.
In this example, compound 1, which belongs to the novel subclass of RXR ligands is compared to a typical RXR ligand like compound 2 in the treatment of KKA^y mice.
For this study, adult diabetic KKA^y mice were housed in a fixed 12—12-hr artificial light-dark cycle, and maintained on a standard rodent diet. Prior to commencing treatment, all of the animals are bled from the tail vein and serum levels of glucose and triglyceride are measured in duplicate. The animals are then sorted into different treatment groups with equal average triglyceride levels. The animals are treated with a single daily oral dose of the test compound suspended in sesame oil (dose volume of 3 ml/kg).

BALB/c mice = assay: Effect on serum triglyceride levels in wild type BALB/c mice; format: in vivo, mouse; conditions: FIG. 12
Method: The animals were treated with a single daily oral dose of the test compound suspended in sesame oil (dose volume of 5 ml/kg). […], Animas treated with 10 and 30 mg/kg of Compound 1, which are doses that are 30 and 100 times the efficacious does in diabetic db/db mice, respectively, caused no increase in serum triglyceride levels compared to vehicle treated control animals.
Test compounds are tested in wild type mice at 10-100 times the efficacious dose in diabetic mice. Typically, adult male BALB/c mice are housed in a fixed 12—12-hr artificial light-dark cycle, and maintained on a standard rodent diet. The animals are treated with a single daily oral dose of the test compound suspended in sesame oil (dose volume of 5 ml/kg) as also described in the examples. Approximately two weeks later the animals are bled from the tail vein, then necropsied following sacrifice by carbon dioxide asphyxiation. Several serum biochemical parameters are measured. Of special significance is the effect the selected compounds have on serum triglyceride levels compared to vehicle treated control animals.
For these studies, adult male BALB/c mice were housed in a fixed 12—12-hr artificial light-dark cycle, and maintained on a standard rodent diet. The animals were treated with a single daily oral dose of the test compound suspended in sesame oil (dose volume of 5 ml/kg).

[2] = following one and two weeks of treatment

## Cc1cc2c(cc1-c1cc(C=C3SC(=O)NC3=O)ccc1OC(F)(F)F)C(C)(C)CCC2(C)C [Compound 1]
[1]
  Differentiation Activity: 100%
KKA^y mice; 5 mg/kg, single daily oral dose in sesame oil, FIG. 10, p≦0.01
  serum glucose levels compared to vehicle treated control mice: significant decrease
KKA^y mice; 5 mg/kg, single daily oral dose, FIG. 11, p≦0.05
  serum triglyceride levels compared to vehicle treated control mice: significant decrease
KKA^y mice; efficacious = lowers glucose without increasing triglycerides
  Efficacious in KKAy Mice: Yes
KKA^y mice; [2]
  glucose levels compared to vehicle treated control mice: statistically significant decrease
  triglyceride levels compared to vehicle treated control mice: statistically significant decrease
BALB/c mice; 10 and 30 mg/kg, daily oral, 14 days
  serum triglyceride levels compared to vehicle treated control animals: no increase
BALB/c mice; 10 and 30 mg/kg/day for 10 days
  triglyceride levels compared to vehicle treated controls: does not change
